System: HIV-1 single-round infectious reporter virus
Test: microbe, parasite or virus in culture
Assay type: cell-based
Settings: for EC50: Human immunodeficiency virus 1, HeLa-CD4/CCR5, 72 h, read-out: EC50 Group from Table 1; for inhibition at 10 µM: Human immunodeficiency virus 1, HeLa-CD4/CCR5, read-out: % Inhibition @ 10 uM

Row | SMILES | EC50 [µM] | inhibition at 10 µM [%]
1 | C[C@@H]1CN(C(=O)c2ccccc2)CCN1C(=O)C(=O)C1CNc2c(C(=O)O)cccc21 (stereo partly drawn) [Example 215, 1-benzoyl-3-(R)-methyl-4-[(7-carboxyindolin-3-yl)-2-oxoacetyl]piperazine] | < 1 | –
2 | CC(=O)Nc1nc(-c2ccc(F)c3c(C(=O)C(=O)N4CCN(C(=O)c5ccccc5)CC4)c[nH]c23)no1 [Example 96] | < 1 | –
3 | CC(C)(C)NC(=O)NNC(=O)c1ccc(F)c2c(C(=O)C(=O)N3CCN(C(=O)c4ccccc4)CC3)c[nH]c12 [Example 133] | < 1 | –
4 | CCn1nnc(-c2ccc(F)c3c(C(=O)C(=O)N4CCN(C(=O)c5ccccc5)CC4)c[nH]c23)n1 [Example 23] | < 1 | > 98
5 | O=C(C(=O)N1CCN(C(=O)c2ccccc2)CC1)c1c[nH]c2c(/C=N/O)ccc(F)c12 [Example 30] | < 1 | > 98
6 | NCCNC(=O)c1ccc(F)c2c(C(=O)C(=O)N3CCN(C(=O)c4ccccc4)CC3)c[nH]c12 [Example 154] | < 1 | –
7 | CCNC(=O)c1cccc2c(C(=O)C(=O)N3CCN(C(=O)c4ccccc4)C[C@H]3C)c[nH]c12 [Example 67] | < 1 | > 98
8 | COc1ccc(-c2nccs2)c2[nH]cc(C(=O)C(=O)N3CCN(C(=O)c4ccccc4)CC3)c12 [Example 15] | < 1 | > 98
9 | O=C(C(=O)N1CCN(C(=O)c2ccccc2)CC1)c1c[nH]c2c(C(=O)N3CCN(C(=O)c4ccccc4)CC3)ccc(F)c12 [Example 69] | < 1 | > 98
10 | CCC(C)Nc1nc(-c2ccc(F)c3c(C(=O)C(=O)N4CCN(C(=O)c5ccccc5)C[C@H]4C)c[nH]c23)no1 (some centres unmarked) [Example 160] | < 1 | –
11 | CCOC(=O)c1cc(-c2ccc(F)c3c(C(=O)C(=O)N4CCN(C(=O)c5ccccc5)CC4)c[nH]c23)[nH]n1 [Example 86] | < 1 | –
12 | O=C(Nc1cccnc1)c1ccc(F)c2c(C(=O)C(=O)N3CCN(C(=O)c4ccccc4)CC3)c[nH]c12 [Example 35] | < 1 | > 98
13 | O=C(C(=O)N1CCN(C(=O)c2ccccc2)CC1)c1c[nH]c2c(-c3noc(CCl)n3)ccc(F)c12 [Example 97] | < 1 | –
14 | C[C@@H]1CN(C(=O)c2ccccc2)CCN1C(=O)C(=O)c1c[nH]c2c(-c3nnn(C)n3)ccc(F)c12 [Example 175] | – | > 98
15 | O=C(C(=O)N1CCN(C(=O)c2ccccc2)CC1)c1c[nH]c2c(-c3nnc(C(Cl)(Cl)Cl)o3)ccc(F)c12 [Example 193] | < 1 | –
16 | CS(=O)(=O)NC(=O)c1ccc(F)c2c(C(=O)C(=O)N3CCN(C(=O)c4ccccc4)CC3)c[nH]c12 [Example 60] | < 1 | > 98
17 | O=C(NCc1nc2ccccc2[nH]1)c1ccc(F)c2c(C(=O)C(=O)N3CCN(C(=O)c4ccccc4)CC3)c[nH]c12 [Example 53] | < 1 | –
18 | COC(=O)Cn1cnc(-c2ccc(F)c3c(C(=O)C(=O)N4CCN(C(=O)c5ccccc5)CC4)c[nH]c23)n1 [Example 144] | < 1 | –
19 | O=C(C(=O)N1CCN(C(=O)c2c(F)cccc2F)CC1)c1c[nH]c2c(-c3ncon3)ccc(F)c12 [Example 150B] | < 1 | –
20 | NC(=O)c1ccc(F)c2c(C(=O)C(=O)N3CCN(C(=O)c4ccccn4)CC3)c[nH]c12 [Example 184] | < 1 | –
21 | O=C(C(=O)N1CCN(C(=O)c2ccccc2)CC1)c1c[nH]c2c(-c3nc4cnccc4[nH]3)ccc(F)c12 [Example 164] | < 1 | –

Row | SMILES | EC50 [µM] | inhibition at 10 µM [%]
22 | O=C(NCCN1CCOCC1)c1ccc(F)c2c(C(=O)C(=O)N3CCN(C(=O)c4ccccc4)CC3)c[nH]c12 [Example 52] | < 1 | > 98
23 | O=C(C(=O)N1CCN(C(=O)c2cccc([N+](=O)[O-])c2)CC1)c1c[nH]c2c(-c3ncon3)ccc(F)c12 [Example 150A] | < 1 | –
24 | O=C(C(=O)N1CCN(C(=O)c2ccccc2)CC1)c1c[nH]c2c(-c3cccs3)ccc(F)c12 [Example 12] | < 1 | > 98
25 | NC(=O)c1ccc(F)c2c(C(=O)C(=O)N3CCN(C(=O)c4ccccc4)CC3)c[nH]c12 [Example 42] | < 1 | > 98
26 | O=C(Nc1nc2ccccc2[nH]1)c1ccc(F)c2c(C(=O)C(=O)N3CCN(C(=O)c4ccccc4)CC3)c[nH]c12 [Example 41] | < 1 | > 98
27 | N#CCCCn1nnc(-c2ccc(F)c3c(C(=O)C(=O)N4CCN(C(=O)c5ccccc5)CC4)c[nH]c23)n1 [Example 115] | < 1 | –
28 | C[C@@H]1CN(C(=O)c2ccccc2)CCN1C(=O)C(=O)c1c[nH]c2c(-c3noc(=O)[nH]3)ccc(F)c12 [Example 176] | < 1 | –
29 | COC(=O)CNc1nc(-c2ccc(F)c3c(C(=O)C(=O)N4CCN(C(=O)c5ccccc5)CC4)c[nH]c23)no1 [Example 140] | < 1 | –
30 | CC(C)(C)OC(=O)N1CCN(C(=O)C(=O)c2c[nH]c3c(-c4ncon4)ccc(F)c23)CC1 [Example 122] | < 1 | –
31 | Cc1n[nH]c(-c2ccc(F)c3c(C(=O)C(=O)N4CCN(C(=O)c5ccccc5)CC4)c[nH]c23)n1 [Example 78] | < 1 | –
32 | Nc1cccc(C(=O)N2CCN(C(=O)C(=O)c3c[nH]c4c(-c5ncon5)ccc(F)c34)CC2)c1 [Example 151] | < 1 | –
33 | CN(C)CCNC(=O)c1ccc(F)c2c(C(=O)C(=O)N3CCN(C(=O)c4ccccc4)CC3)c[nH]c12 [Example 44] | < 1 | 97
34 | O=C(C(=O)N1CCN(C(=O)c2ccccc2)CC1)c1c[nH]c2c(-c3noc(NC4CC4)n3)ccc(F)c12 [Example 82] | < 1 | > 98
35 | O=C(NCc1cccs1)c1ccc(F)c2c(C(=O)C(=O)N3CCN(C(=O)c4ccccc4)CC3)c[nH]c12 [Example 51] | < 1 | > 98
36 | O=C(O)c1cc(-c2ccc(F)c3c(C(=O)C(=O)N4CCN(C(=O)c5ccccc5)CC4)c[nH]c23)on1 [Example 90] | < 1 | –
37 | O=C(C(=O)N1CCN(C(=O)c2ccccc2)CC1)c1c[nH]c2c(-c3nn[nH]n3)ccc(F)c12 [Example 20] | < 1 | > 98
38 | O=C(C(=O)N1CCN(C(=O)c2ccccc2)CC1)c1c[nH]c2c(-c3nccs3)ccc(F)c12 [Example 14] | < 1 | > 98
39 | C=CCn1nnc(-c2ccc(F)c3c(C(=O)C(=O)N4CCN(C(=O)c5ccccc5)CC4)c[nH]c23)n1 [Example 26] | < 1 | > 98
40 | C[C@@H]1CN(C(=O)c2ccccc2)CCN1C(=O)C(=O)c1c[nH]c2c(-c3nn[nH]n3)ccc(F)c12 [Example 33] | < 1 | > 98
41 | CC(C)(C)OC(=O)N1CCN(C(=O)C(=O)c2c[nH]c3c(/C(N)=N/O)ccc(F)c23)CC1 [Example 121] | < 1 | –
42 | NC(=O)c1nc(-c2ccc(F)c3c(C(=O)C(=O)N4CCN(C(=O)c5ccccc5)CC4)c[nH]c23)no1 [Example 103] | < 1 | –

Row | SMILES | EC50 [µM] | inhibition at 10 µM [%]
43 | CN(C)c1nc(-c2ccc(F)c3c(C(=O)C(=O)N4CCN(C(=O)c5ccccc5)CC4)c[nH]c23)no1 [Example 156] | < 1 | –
44 | O=C(NC1=NCCS1)c1ccc(F)c2c(C(=O)C(=O)N3CCN(C(=O)c4ccccc4)CC3)c[nH]c12 [Example 36] | < 1 | > 98
45 | O=C(NCCc1c[nH]c2ccccc12)c1ccc(F)c2c(C(=O)C(=O)N3CCN(C(=O)c4ccccc4)CC3)c[nH]c12 [Example 48] | < 1 | > 98
46 | O=C(C(=O)N1CCN(C(=O)c2ccccc2)CC1)c1c[nH]c2c(-c3nc4ccccc4[nH]3)ccc(F)c12 [Example 76] | < 1 | > 98
47 | CC(C)(C)OC(=O)NCCNC(=O)c1ccc(F)c2c(C(=O)C(=O)N3CCN(C(=O)c4ccccc4)CC3)c[nH]c12 [Example 153] | < 1 | –
48 | COC(=O)/C=C/c1ccc(F)c2c(C(=O)C(=O)N3CCN(C(=O)c4ccccc4)CC3)c[nH]c12 [Example 217] | < 1 | –
49 | C[C@@H]1CN(C(=O)c2ccccc2)CCN1C(=O)C(=O)c1c[nH]c2c(C(=O)N(C)C)cccc12 [Example 65] | < 1 | 70
50 | COC(=O)Cc1nc(-c2ccc(F)c3c(C(=O)C(=O)N4CCN(C(=O)c5ccccc5)CC4)c[nH]c23)no1 [Example 98] | < 1 | –
51 | O=C(C(=O)N1CCN(C(=O)c2ccccc2)CC1)c1c[nH]c2c(-c3noc(=O)[nH]3)ccc(F)c12 [Example 28] | < 1 | > 98
52 | COC(=O)c1c[nH]c(-c2ccc(F)c3c(C(=O)C(=O)N4CCN(C(=O)c5ccccc5)CC4)c[nH]c23)n1 [Example 146] | < 1 | –
53 | CCOC(=O)c1cc(-c2ccc(F)c3c(C(=O)C(=O)N4CCN(C(=O)c5ccccc5)CC4)c[nH]c23)on1 [Example 87] | < 1 | –
54 | O=C(C(=O)N1CCN(C(=O)c2ccccc2)CC1)c1c[nH]c2c(-c3nc4ccccc4o3)ccc(F)c12 [Example 18] | < 1 | > 98
55 | O=C(C(=O)N1CCN(C(=O)c2ccccc2F)CC1)c1c[nH]c2c(-c3ncon3)ccc(F)c12 [Example 150C] | < 1 | –
56 | COc1ccc(-c2ccc(F)cc2)c2[nH]cc(C(=O)C(=O)N3CCN(C(=O)c4ccccc4)CC3)c12 [Example 3] | < 1 | > 98
57 | CNC(=O)c1nc(-c2ccc(F)c3c(C(=O)C(=O)N4CCN(C(=O)c5ccccc5)CC4)c[nH]c23)no1 [Example 102] | < 1 | –
58 | CNC(=O)c1ccc(F)c2c(C(=O)C(=O)N3CCN(C(=O)c4ccccc4)CC3)c[nH]c12 [Example 47] | < 1 | > 98
59 | COc1ccc(-c2cccnc2)c2[nH]cc(C(=O)C(=O)N3CCN(C(=O)c4ccccc4)CC3)c12 [Example 8] | < 1 | > 98
60 | COC(CNC(=O)c1ccc(F)c2c(C(=O)C(=O)N3CCN(C(=O)c4ccccc4)CC3)c[nH]c12)OC [Example 72] | < 1 | > 98
61 | CC(=O)OCn1nnc(-c2ccc(F)c3c(C(=O)C(=O)N4CCN(C(=O)c5ccccc5)CC4)c[nH]c23)n1 [Example 108] | < 1 | –
